Target: T1, pol μ (truncated human wild-type DNA polymerase μ) (Homo sapiens, UniProt Q9NP87, DEL398-410)
T1 construct: gene POLM; recalled: residues about 132-494; loop2 'previously truncated to improve crystallizability' (between Pro397 and Ser411; recalled deletion Pro398-Pro410); GST fusion from pGEXM, tag cut on resin with TEV; E. coli BL21(DE3)CodonPlus-RIPL; parent model PDB 4M04
Experiment: time-lapse X-ray crystallography
Type: binding
Conditions: product complex after in crystallo TTP insertion into gapped DNA; 10 mM MgCl2 (60 min, 2.02 Å) or 10 mM MnCl2; 4 °C, pH 7.5

T1 sequence (Q9NP87 with tags, fused parts or gaps DEL398-410): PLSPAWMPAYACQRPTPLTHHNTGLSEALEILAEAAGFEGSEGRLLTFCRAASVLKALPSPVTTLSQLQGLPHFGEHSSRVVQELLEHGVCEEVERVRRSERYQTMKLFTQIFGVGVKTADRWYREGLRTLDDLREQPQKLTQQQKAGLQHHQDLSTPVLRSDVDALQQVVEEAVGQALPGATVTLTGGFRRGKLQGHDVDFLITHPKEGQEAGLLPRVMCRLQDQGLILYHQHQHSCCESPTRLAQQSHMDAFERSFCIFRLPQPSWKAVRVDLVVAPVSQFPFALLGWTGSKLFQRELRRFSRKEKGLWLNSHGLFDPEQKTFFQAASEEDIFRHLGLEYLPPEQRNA

SMILES: O=P(O)(O)OP(=O)(O)O [PPi]
- time-lapse X-ray crystallography: The position of Pβ of the PPi product is identical to that expected after bond cleavage

Source: PMC5557891, “Time-lapse crystallography snapshots of a double-strand break repair polymerase in action” (Nature Communications, 2017)
